# Legend:
# [1] = system: Oxazolon-Entzündung in vorsensibilisierten Mäusen; experiment: Oxazolone inflammation in presensitised mice (ear punch weight); format: in vivo, Mäuse (Charles River CD-1); details: topical, mouse ear, 24 h
# Experimental: 21 Tage alte männliche Mäuse (Charles River CD-1) werden mit Oxazolon sensibilisiert, indem man 400 ug Oxazolon in 20 ul Aceton topisch auf das Scrotum appliziert.. Eine Woche später werden 10 ul Aceton oder 200 µg Oxazolon topisch auf die innere Oberfläche des Ohres und die Testverbindung in 10 µl Aceton auf die äussere Oberfläche des Ohres appliziert. Verschiedene Gruppen von Mäusen dienten als Kontrollgruppen (Trägermaterial-Gruppe und Oxazolon-Gruppe). Das Gewicht der Ohrstücke wird 24 Stunden später bestimmt. Verminderung des Gewichtes der Ohrstücke, erhalten aus Mäusen, welche mit der Testverbindung und mit Oxazolon behandelt worden sind, verglichen mit dem Gewicht der Ohrstücke, erhalten aus Mäusen, welche mit Oxazolon alleine behandelt worden sind, zeigt entzündungshemmende Wirkungen (Br. J. Pharmacol. 43, 403-408, 1971).
# Die topisch entzündungshemmenden Wirkungen der Verbindung E, Hydrocortison und Indomethacin werden bei verschiedenen Dosierungen im Oxazolon-Entzündungs-Test in vorsensibilisierten Mäusen bestimmt. Die Testresultate (Hemmung in %) sind in der untenstehenden Tabelle angegeben.
# [2] = system: Cantharidin-Entzündung in der Ratte; experiment: Cantharidin inflammation in the rat (ear punch weight); format: in vivo, Ratten (Charles River CD); details: 100 µg/0,1 ml topical, compound given 24 h after cantharidin, autopsy 72 h
# Experimental: Eine Lösung aus einem Teil Aethanol, 1,5 Teilen Collodion, 2 Teilen Aceton und 3 Teilen Diäthyläther (Volumenteile), welche 400 ug Cantharidin/0,1 ml und die Testverbindung in der gewünschten Menge enthält, wird topisch auf die äussere Oberfläche von Ohren von 21 Tage alten männlichen Ratten (Charles River CD) gegeben (0,1 ml). Andere Gruppen von Ratten werden mit Trägermaterial alleine, mit Cantharidin alleine und mit Cantharidin plus Testverbindung behandelt. Wo in den Beispielen angegeben, wird die Testverbindung 24 Stunden nach Verabreichung von Cantharidin verabreicht. 72 Stunden nach Verabreichung von Cantharidin wird eine Autopsie durchgeführt. Aus dem Ohr werden an der behandelten Stelle einheitliche Stücke herausgestanzt und gewogen. Aus den Gewichtsveränderungen lassen sich die Auswirkungen auf den Entzündungsprozess ermitteln, und zwar sowohl für die Flüssigkeits- als auch für die Gewebskomponente. Eine Reduktion des Gewichtes von Hautstücken, die man aus Ratten erhalten hat, welche mit dem Reizmittel und der Testverbindung behandelt worden sind, verglichen mit dem Gewicht von Hautstücken, welche man von Ratten erhalten hat, die nur mit dem Reizmittel behandelt worden sind, zeigt eine entzündungshemmende Wirkung an (J. Invest. Dermatol. 68, 161-164, 1977).
# Eine Reihe von Verbindungen der allgemeinen Formel I werden im Cantharidin-Entzündungs-Test in der Ratte auf ihre topisch entzündungshemmenden Wirkungen hin ge- testet. Jede Verbindung wird bei 5 verschiedenen Dosierungen getestet. Die in der nachfolgenden Tabelle ange- gebenen Testresultate (in %) geben an, um wieviel die durch Cantharidin bewirkte Zunahme des Gewichtes der Ohrstücke durch die jeweilige Testverbindung reduziert wird: • [formula]
# Die topisch entzündungshemmende Wirkung der Verbindung E wird bei einer Dosierung von 100 µg/0,1 ml im Cantharidin- Entzündungs-Test in der Ratte bestimmt, wobei man adrenalektomierte und intakte Ratten verwendet. Wie man den Testresultaten in der untenstehenden Tabelle entnehmen kann, entfaltet die Verbindung E an der adrenalektomierten Ratte etwa die gleich grosse Wirkung wie an der intakten Ratte. Dies zeigt an, dass der primäre Wirkungsmechanismus nicht in der Stimulierung der Nebennierenrinde besteht.
# [3] = system: Baumwollkügelchen-Granuloma; experiment: Cotton pellet granuloma method in the rat; format: in vivo, Ratten (Charles River CD); details: s.c. implant, 72 h; for durchschnittliches Nettogewicht der Kügelchen in mg trocken: ethanol vehicle 32.6; for durchschnittliches Nettogewicht der Kügelchen in mg feucht: ethanol vehicle 392.5
# Experimental: Man löst die Testverbindung in einem geeigneten Lösungsmittel und appliziert jeweils 0,1 ml dieser Lösung auf einheitliche, vorher gewogene Baumwollkügelchen, die man aus Baumwolltampons herausgeschnitten hat. Man trocknet die Baumwollkügelchen bei Raumtemperatur. 2 mit der Testverbindung imprägnierte Kügelchen werden auf dem Dorsum von 5 Wochen alten männlichen Ratten (Charles River CD) subcutan inplantiert. 72 Stunden später werden die Kügelchen entfernt. Man bestimmt das Feucht- und Trockengewicht und korrigiert um das Tara der Kügelchen. Vergleicht man nun die Gewichte der Granulomata, die man von mit der Testverbindung imprägnierten Kügelchen erhalten hat, mit den Gewichten der Granulomata, die man von nur mit Trägermaterial imprägnierten Kügelchen erhalten hat, miteinander, so zeigt eine Abnahme des Gewichtes entzündungshemmende Wirkung an (Endocrinology 60, 153-160, 1957).
# Die topisch entzündungshemmenden Wirkungen der Verbindung E und Hydrocortison werden durch Verwendung des Baumwollkügelchen-Granuloma-Verfahrens an der Ratte bestimmt. Die in der unten stehenden Tabelle angegebenen Testresultate zeigen, dass die Verbindung E bei Dosierungenen von 90 und 270 µg/0,1 ml grösser ist als die Akti- vität von Hydrocortison (niedrigere Feucht- und Trockengewichte).
# [4] = system: Krotonöl-Entzündung in der Maus; experiment: Croton oil inflammation in the mouse (ear punch weight); format: in vivo, Mäusen (Charles River CD-1); details: for Gewicht der Ohrstücke in mg: croton oil alone 19,7±0,6, vehicle without croton oil 7,2; for Hemmung in %: topical, mouse ear, 6 h
# Experimental: Eine Lösung aus 0,1 Teilen Krotonöl, 1 Teil destilliertem Wasser, 4 Teilen Pyridin und 4,9 Teilen Diäthyläther (Volumenteile), welche die Testverbindung enthält, wird topisch auf Ohren von 21 Tage alten männlichen Mäusen (Charles River CD-1) gegeben (25 ul). Verschiedene Gruppen von Mäusen dienten als Kontrollgruppen (Trägermaterial-Gruppe und Krotonöl-Gruppe). Nach 6 Stunden wird das Gewicht der Ohrstücke bestimmt, das in erster Linie ein Mass für die Oedem-Komponente der Entzündung ist. Verminderung des Gewichtes von Ohrstücken, welche von Mäusen erhalten wurden, welche mit der Testverbindung und dem Reizmittel behandelt worden sind, verglichen mit dem Gewicht von Ohrstücken, die von Mäusen erhalten wurden, die nur mit dem Reizmittel behandelt worden sind, zeigt entzündungshemmende Wirkung an (Endocrinology 77, 625-634, 1965; Clin. Pharm. Exp. Therap. 16, 900-904, 1974).
# Die Verbindung E wird bei 3 verschiedenen Dosierungen im Krotonöl-Entzündungs-Test in der Maus auf ihre topisch entzündungshemmende Wirkung hin geprüft. Ebenfalls getestet werden Hydrocortison, ein bekanntes topisch entzündungshemmendes Corticosteroid, und eine Reihe von bekannten Verbindungen, welche systemisch entzündungshemmend wirken und nicht zur Klasse der Steroide gehören. Die Testresultate (Hemmung in Prozenten) sind in der unten stehenden Tabelle angegeben. Wie man diesen Resultaten entnehmen kann, entfaltet die Verbindung E eine vergleichbare Aktivität wie Hydrocortison, währenddem die anderen Verbindungen, welche nicht zur Klasse der Steroide gehören, in wesentlich höheren Dosierungen verabreicht werden müssen, um eine vergleichbare Hemmung zu bewirken, wie die Verbindung E und Hydrocortison.
# Die entzündungshemmende Wirkung der Verbindung E alleine oder in Kombination mit 4-(3-Butoxy-4-methoxybenzyl)-2-imidazolidinon wird im Krotonöl-Test an der Maus bestimmt. Die Verbindung E wird bei verschiedenen Konzentrationen verwendet. 4-(3-Butoxy-4-methoxybenzyl)-2-imida- zolidinon wird, sofern vorhanden, in einer Konzentration von 5 Gewichtsprozenten (bezogen auf das Gewicht der applizierten Lösung) eingesetzt. Die Testresultate sind in der unten stehenden Tabelle aufgeführt.
# [5] = pellets impregnated with 90 µg/0.1 ml
# [6] = pellets impregnated with 270 µg/0.1 ml
compound,measurement,setting,value
COc1ccc2c(c1)c(CC(=O)O)c(C)n2C(=O)c1ccc(Cl)cc1 [Indomethacin],Hemmung in %,[1]; dose 500 µg/10 µl,32%
same,Hemmung in %,[1]; dose 1000 µg/10 µl,59%
"CN1CCN(C2=Cc3ccccc3Sc3ccc(Cl)cc32)CC1 [Verbindung E, 8-Chlor-10-(4-methylpiperazino)dibenzo-[b,f]thiepin]",Hemmung in %,[2]; adrenalectomised rats,49%
same,Gewicht der Ohrstücke,"[2]; adrenalectomised rats, vehicle 11.4±0.2, cantharidin alone 25.5±1.0",18.6±0.6
same,Hemmung in %,[2]; intact rats,55%
same,Gewicht der Ohrstücke,"[2]; intact rats, vehicle 12.0±0.4, cantharidin alone 25.2±1.5",18.0±1.1
same,durchschnittliches Nettogewicht der Kügelchen in mg trocken,[3]; [5],20.1 mg
same,durchschnittliches Nettogewicht der Kügelchen in mg feucht,[3]; [5],285.2 mg
same,durchschnittliches Nettogewicht der Kügelchen in mg trocken,[3]; [6],16.9 mg
same,durchschnittliches Nettogewicht der Kügelchen in mg feucht,[3]; [6],234.9 mg
same,Hemmung in %,[1]; dose 100 µg/10 µl,51%
same,Hemmung in %,[1]; dose 500 µg/10 µl,75%
same,Gewicht der Ohrstücke in mg,"[4]; Verbindung E alone, 100 µg/0,1 ml","15,9±0,8 mg"
same,Gewicht der Ohrstücke in mg,"[4]; Verbindung E alone, 400 µg/0,1 ml","11,8±0,6 mg"
same,Hemmung in %,[4]; dose 100 µg/25 µl,48%
same,Hemmung in %,[4]; dose 200 µg/25 µl,67%
same,Hemmung in %,[4]; dose 500 µg/25 µl,91%
C[C@]12CCC(=O)C=C1CC[C@@H]1[C@@H]2[C@@H](O)C[C@@]2(C)[C@H]1CC[C@]2(O)C(=O)CO [Hydrocortison],durchschnittliches Nettogewicht der Kügelchen in mg trocken,[3]; [5],37.7 mg
same,durchschnittliches Nettogewicht der Kügelchen in mg feucht,[3]; [5],406.5 mg
same,durchschnittliches Nettogewicht der Kügelchen in mg trocken,[3]; [6],20.3 mg
same,durchschnittliches Nettogewicht der Kügelchen in mg feucht,[3]; [6],286.6 mg
same,Hemmung in %,[1]; dose 50 µg/10 µl,24%
same,Hemmung in %,[1]; dose 200 µg/10 µl,49%
same,Hemmung in %,[4]; dose 50 µg/25 µl,53%
same,Hemmung in %,[4]; dose 125 µg/25 µl,77%
same,Hemmung in %,[4]; dose 250 µg/25 µl,98%
Phenylbutazon,Hemmung in %,[4]; dose 1250 µg/25 µl,33%
same,Hemmung in %,[4]; dose 2500 µg/25 µl,69%
CC(=O)Oc1ccccc1C(=O)O [Acetylsalicyl säure],Hemmung in %,[4]; dose 1250 µg/25 µl,28%
same,Hemmung in %,[4]; dose 2500 µg/25 µl,36%
same,Hemmung in %,[4]; dose 5000 µg/25 µl,78%
same,Hemmung in %,[4]; dose 10000 µg/25 µl,88%
COc1ccc2cc([C@H](C)C(=O)O)ccc2c1 [Naproxen],Hemmung in %,[4]; dose 1250 µg/25 µl,60%
same,Hemmung in %,[4]; dose 2500 µg/25 µl,87%
CC(C(=O)O)c1cccc(Oc2ccccc2)c1 (stereo not drawn) [Fenoprofen],Hemmung in %,[4]; dose 1250 µg/25 µl,50%
same,Hemmung in %,[4]; dose 2500 µg/25 µl,71%
CCCCOc1cc(CC2CNC(=O)N2)ccc1OC (stereo not drawn) [4-(3-Butoxy-4-methoxybenzyl)-2-imidazolidinon],Gewicht der Ohrstücke in mg,"[4]; 5% imidazolidinone, Verbindung E 0 µg/0,1 ml","17,6±1,0 mg"
same,entzündungshemmende Wirkung,"[4]; alone, at concentrations of 5%, test not given",nur wenig oder gar keine entzündungshemmende Wirkung
same,Einfluss auf die entzündungshemmende Wirkung der Verbindung E,[4]; imidazolidinone at 5% combined with Verbindung E,potenziert

# Source: patent EP0039059A2, “Anti-inflammatory drugs and their application” (F. HOFFMANN-LA ROCHE & CO. Aktiengesellschaft, priority 1980, dated 1981)
